In patent US20230241081A1, “Method for Treating Melanoma” (The Regents of the University of Colorado, a body corporate, priority 2020, published 2023):
Residues, ends and D or L forms follow the SMILES beside them. *: point of attachment. Cbz = O=C(OCc1ccccc1)*

Target: T1, PRL-3 (Homo sapiens, UniProt O75365)
T1 construct: endogenous in cells; host or cells: BT-20 cells
Experiment: PRL-3 degradation in BT-20 cells
Assay type: cell-based
Conditions: proteasomal inhibitor with 100 nM compound A, FIG. 6

T1 sequence (O75365 whole entry): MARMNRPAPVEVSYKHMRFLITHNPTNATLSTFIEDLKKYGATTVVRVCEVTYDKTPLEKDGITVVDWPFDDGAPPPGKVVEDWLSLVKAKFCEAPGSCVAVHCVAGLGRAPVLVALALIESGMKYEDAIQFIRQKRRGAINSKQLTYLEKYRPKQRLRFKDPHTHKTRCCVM

`CC(C)C[C@@H](C=O)NC(=O)[C@H](CC(C)C)NC(=O)[C@H](CC(C)C)NC(=O)OCc1ccccc1` [MG-132] (Cbz-Leu-Leu-Leu-aldehyde) was tested. Which “effect on compound A-mediated degradation of PRL-3” value did it give?
The value was “block compound A-mediated degradation of PRL-3”.
